In PubChem BioAssay (NCI):
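Growth conditions: 96-well plates. Treatment: test compound, 48 hours, 5 concentrations. Analysis: linear interpolation between bracketing concentrations; unreached endpoints set to highest concentration. TGI marks complete inhibition of growth.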

Tests used:
Assay in all cases: NCI anticancer screen, dose series, 48 h
[1] = system: MDA-N
[2] = system: SW-620 colon
[3] = system: HCT-15 colon
[4] = system: NCI-H522 lung
[5] = system: SNB-19 CNS
[6] = system: COLO 205 colon
[7] = system: HCT-116 colon
[8] = system: 786-0 renal
[9] = system: CAKI-1 renal
[10] = system: DU-145 prostate
[11] = system: MDA-MB-435
[12] = system: A549 NSCLC
[13] = system: NCI-H23 lung
[14] = system: UACC-62 melanoma
[15] = system: ACHN renal
[16] = system: MALME-3M melanoma
[17] = system: SK-MEL-5 melanoma
[18] = system: MOLT-4 leukemia
[19] = system: PC-3 prostate
[20] = system: HOP-62 NSCLC
[21] = system: RXF 393 renal
[22] = system: MDA-MB-231 breast
[23] = system: SK-MEL-28 melanoma
[24] = system: OVCAR-4 ovarian
[25] = system: U251 CNS
[26] = system: NCI/ADR-RES ovarian
[27] = system: SN12C renal
[28] = system: SK-MEL-2 melanoma
[29] = system: M14 melanoma
[30] = system: OVCAR-8 ovarian
[31] = system: T-47D breast
[32] = system: SF-539 CNS
[33] = system: NCI-H460 lung
[34] = system: TK-10 renal
[35] = system: A498 renal
[36] = system: OVCAR-5 ovarian
[37] = system: UO-31 renal
[38] = system: K-562 leukemia
[39] = system: SF-268 CNS
[40] = system: RPMI-8226 leukemia
[41] = system: HOP-92 NSCLC
[42] = system: OVCAR-3 ovarian
[43] = system: SK-OV-3 ovarian
[44] = system: KM12 colon
[45] = system: HT29 colon
[46] = system: MCF7 breast
[47] = system: SF-295 CNS
[48] = system: BT-549 breast
[49] = system: IGROV1 ovarian
[50] = system: HL-60(TB) leukemia
[51] = system: HS 578T breast
[52] = system: NCI-H226 lung
[53] = system: HCC-2998 colon
[54] = system: SNB-75 CNS
[55] = system: LOX IMVI melanoma
[56] = system: SR leukemia
[57] = system: UACC-257 melanoma
[58] = system: CCRF-CEM leukemia
[59] = system: EKVX NSCLC

## COC(=O)C1C2C=CC(C2)N1S(=O)(=O)c1ccccc1 (configuration not stated)
[1]
  TGI: > 100 µM
[2]
  TGI: > 100 µM
[3]
  TGI: > 100 µM
[4]
  TGI: > 100 µM
[5]
  TGI: > 100 µM
[6]
  TGI: > 100 µM
[7]
  TGI: > 100 µM
[8]
  TGI: > 100 µM
[9]
  TGI: > 100 µM
[10]
  TGI: > 100 µM
[11]
  TGI: > 100 µM
[12]
  TGI: > 100 µM
[13]
  TGI: > 100 µM
[14]
  TGI: > 100 µM
[15]
  TGI: > 100 µM
[16]
  TGI: > 100 µM
[17]
  TGI: > 100 µM
[18]
  TGI: > 100 µM
[19]
  TGI: > 100 µM
[20]
  TGI: > 100 µM
[21]
  TGI: > 100 µM
[22]
  TGI: > 100 µM
[23]
  TGI: > 100 µM
[24]
  TGI: > 100 µM
[25]
  TGI: > 100 µM
[26]
  TGI: > 100 µM
[27]
  TGI: > 100 µM
[28]
  TGI: > 100 µM
[29]
  TGI: > 100 µM
[30]
  TGI: > 100 µM
[31]
  TGI: > 100 µM
[32]
  TGI: > 100 µM
[33]
  TGI: > 100 µM
[34]
  TGI: > 100 µM
[35]
  TGI: > 100 µM
[36]
  TGI: > 100 µM
[37]
  TGI: > 100 µM
[38]
  TGI: > 100 µM
[39]
  TGI: > 100 µM
[40]
  TGI: > 100 µM
[41]
  TGI: > 100 µM
[42]
  TGI: > 100 µM
[43]
  TGI: > 100 µM
[44]
  TGI: > 100 µM
[45]
  TGI: > 100 µM
[46]
  TGI: > 100 µM
[47]
  TGI: > 100 µM

## O=C(N/N=C1/C(=O)c2c3ccccc3cc3cccc1c23)c1cccc(Cl)c1
[1]
  TGI: > 100 µM
[2]
  TGI: > 100 µM
[3]
  TGI: > 100 µM
[5]
  TGI: > 100 µM
[6]
  TGI: > 100 µM
[7]
  TGI: > 100 µM
[8]
  TGI: > 100 µM
[9]
  TGI: > 100 µM
[10]
  TGI: > 100 µM
[48]
  TGI: > 100 µM
[11]
  TGI: > 100 µM
[12]
  TGI: > 100 µM
[49]
  TGI: > 100 µM
[13]
  TGI: > 100 µM
[14]
  TGI: > 100 µM
[15]
  TGI: > 100 µM
[50]
  TGI: > 100 µM
[17]
  TGI: > 100 µM
[18]
  TGI: > 100 µM
[19]
  TGI: > 100 µM
[20]
  TGI: > 100 µM
[21]
  TGI: > 100 µM
[22]
  TGI: > 100 µM
[23]
  TGI: > 100 µM
[51]
  TGI: 67.2 µM
[24]
  TGI: > 100 µM
[25]
  TGI: > 100 µM
[52]
  TGI: > 100 µM
[53]
  TGI: > 100 µM
[26]
  TGI: > 100 µM
[54]
  TGI: > 100 µM
[27]
  TGI: > 100 µM
[28]
  TGI: > 100 µM
[29]
  TGI: > 100 µM
[30]
  TGI: > 100 µM
[32]
  TGI: > 100 µM
[33]
  TGI: > 100 µM
[55]
  TGI: > 100 µM
[35]
  TGI: > 100 µM
[36]
  TGI: > 100 µM
[38]
  TGI: > 100 µM
[56]
  TGI: > 100 µM
[40]
  TGI: > 100 µM
[41]
  TGI: > 100 µM
[42]
  TGI: > 100 µM
[43]
  TGI: > 100 µM
[57]
  TGI: > 100 µM
[44]
  TGI: > 100 µM
[45]
  TGI: > 100 µM
[58]
  TGI: > 100 µM

## CCc1c(Cl)nc(Cl)nc1Cl
[1]
  TGI: 10.8 µM
[2]
  TGI: 1.39 µM
[3]
  TGI: 0.601 µM
[4]
  TGI: 0.113 µM
[5]
  TGI: 8.79 µM
[6]
  TGI: 0.284 µM
[7]
  TGI: 0.44 µM
[8]
  TGI: 3.71 µM
[9]
  TGI: 0.404 µM
[10]
  TGI: 6.35 µM
[48]
  TGI: 0.133 µM
[11]
  TGI: 12.1 µM
[12]
  TGI: 13.7 µM
[49]
  TGI: 4.44 µM
[13]
  TGI: 2.06 µM
[14]
  TGI: 2.28 µM
[15]
  TGI: 0.219 µM
[50]
  TGI: 0.674 µM
[16]
  TGI: 0.718 µM
[59]
  TGI: 1.94 µM
[17]
  TGI: 1.39 µM
[18]
  TGI: 9.5 µM
[19]
  TGI: 4.06 µM
[20]
  TGI: 5.81 µM
[21]
  TGI: 0.968 µM
[22]
  TGI: 2.81 µM
[23]
  TGI: 5.54 µM
[25]
  TGI: 0.92 µM
[52]
  TGI: 0.283 µM
[53]
  TGI: 0.774 µM
[26]
  TGI: 11.3 µM
[54]
  TGI: 4.21 µM
[27]
  TGI: 1.39 µM
[29]
  TGI: 0.99 µM
[30]
  TGI: 44.4 µM
[31]
  TGI: 1.7 µM
[32]
  TGI: 1.77 µM
[33]
  TGI: 10.4 µM
[34]
  TGI: 4.77 µM
[55]
  TGI: 1.54 µM
[35]
  TGI: 16.8 µM
[36]
  TGI: 1.3 µM
[37]
  TGI: 4.85 µM
[38]
  TGI: > 32 µM
[39]
  TGI: 2.03 µM
[56]
  TGI: > 100 µM
[40]
  TGI: 0.252 µM
[41]
  TGI: 3 µM
[42]
  TGI: 0.374 µM
[43]
  TGI: 12.3 µM
[57]
  TGI: 2.79 µM
[44]
  TGI: 4.16 µM
[45]
  TGI: 1.3 µM
[46]
  TGI: 0.258 µM
[47]
  TGI: 5.84 µM
